Laboratory results reported in PubChem BioAssay (NCI).
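Dose response: 5 concentrations. Exposure: 48 h. Format: 96-well plates. Endpoint: linear interpolation; highest concentration if not reached. Abbreviation: GI50, concentration required for 50% inhibition of growth. Definition used: TGI = concentration required for complete inhibition of growth.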

Legend:
Experiment in all cases: growth of human tumour cells (NCI), 48 h
786-0 renal = system: 786-0 renal
A498 renal = system: A498 renal
A549 NSCLC = system: A549 NSCLC
ACHN renal = system: ACHN renal
BT-549 breast = system: BT-549 breast
CAKI-1 renal = system: CAKI-1 renal
CCRF-CEM leukemia = system: CCRF-CEM leukemia
COLO 205 colon = system: COLO 205 colon
DU-145 prostate = system: DU-145 prostate
EKVX NSCLC = system: EKVX NSCLC
HCC-2998 colon = system: HCC-2998 colon
HCT-116 colon = system: HCT-116 colon
HCT-15 colon = system: HCT-15 colon
HL-60(TB) leukemia = system: HL-60(TB) leukemia
HOP-62 NSCLC = system: HOP-62 NSCLC
HOP-92 NSCLC = system: HOP-92 NSCLC
HS 578T breast = system: HS 578T breast
HT29 colon = system: HT29 colon
IGROV1 ovarian = system: IGROV1 ovarian
K-562 leukemia = system: K-562 leukemia
KM12 colon = system: KM12 colon
LOX IMVI melanoma = system: LOX IMVI melanoma
M14 melanoma = system: M14 melanoma
MALME-3M melanoma = system: MALME-3M melanoma
MCF7 breast = system: MCF7 breast
MDA-MB-435 = system: MDA-MB-435
MDA-MB-468 breast = system: MDA-MB-468 breast
MOLT-4 leukemia = system: MOLT-4 leukemia
NCI-H226 lung = system: NCI-H226 lung
NCI-H23 lung = system: NCI-H23 lung
NCI-H460 lung = system: NCI-H460 lung
NCI-H522 lung = system: NCI-H522 lung
NCI/ADR-RES ovarian = system: NCI/ADR-RES ovarian
OVCAR-3 ovarian = system: OVCAR-3 ovarian
OVCAR-4 ovarian = system: OVCAR-4 ovarian
OVCAR-5 ovarian = system: OVCAR-5 ovarian
OVCAR-8 ovarian = system: OVCAR-8 ovarian
PC-3 prostate = system: PC-3 prostate
RPMI-8226 leukemia = system: RPMI-8226 leukemia
RXF 393 renal = system: RXF 393 renal
SF-268 CNS = system: SF-268 CNS
SF-295 CNS = system: SF-295 CNS
SF-539 CNS = system: SF-539 CNS
SK-MEL-28 melanoma = system: SK-MEL-28 melanoma
SK-MEL-5 melanoma = system: SK-MEL-5 melanoma
SK-OV-3 ovarian = system: SK-OV-3 ovarian
SN12C renal = system: SN12C renal
SNB-19 CNS = system: SNB-19 CNS
SR leukemia = system: SR leukemia
SW-620 colon = system: SW-620 colon
T-47D breast = system: T-47D breast
TK-10 renal = system: TK-10 renal
U251 CNS = system: U251 CNS
UACC-257 melanoma = system: UACC-257 melanoma
UACC-62 melanoma = system: UACC-62 melanoma

O=C(Nc1nc2ccc([N+](=O)[O-])cc2s1)Nc1ccccc1I
GI50 (786-0 renal): 3.61 µM | TGI (786-0 renal): 32.1 µM | GI50 (A498 renal): 2.57 µM | TGI (A498 renal): 8.12 µM | GI50 (A549 NSCLC): 3.81 µM | TGI (A549 NSCLC): 19.2 µM | GI50 (ACHN renal): 3.58 µM | TGI (ACHN renal): 15.6 µM | GI50 (BT-549 breast): 2.86 µM | TGI (BT-549 breast): 10.5 µM | GI50 (CAKI-1 renal): 3.46 µM | TGI (CAKI-1 renal): > 100 µM | GI50 (CCRF-CEM leukemia): 3.57 µM | TGI (CCRF-CEM leukemia): 52 µM | GI50 (COLO 205 colon): 4.89 µM | TGI (COLO 205 colon): 20 µM | GI50 (DU-145 prostate): 4.25 µM | TGI (DU-145 prostate): > 100 µM | GI50 (EKVX NSCLC): 3.05 µM | TGI (EKVX NSCLC): 12.3 µM | GI50 (HCC-2998 colon): 4.12 µM | TGI (HCC-2998 colon): 23.4 µM | GI50 (HCT-116 colon): 3.46 µM | TGI (HCT-116 colon): 12.6 µM | GI50 (HCT-15 colon): 3.4 µM | TGI (HCT-15 colon): 14.6 µM | GI50 (HL-60(TB) leukemia): 2.15 µM | TGI (HL-60(TB) leukemia): 7.92 µM | GI50 (HOP-62 NSCLC): 6.16 µM | TGI (HOP-62 NSCLC): 21.4 µM | GI50 (HOP-92 NSCLC): 2.3 µM | TGI (HOP-92 NSCLC): 6.95 µM | GI50 (HS 578T breast): 3.23 µM | TGI (HS 578T breast): > 100 µM | GI50 (HT29 colon): 5.76 µM | TGI (HT29 colon): 20 µM | GI50 (IGROV1 ovarian): 3.97 µM | TGI (IGROV1 ovarian): > 100 µM | GI50 (K-562 leukemia): 3.23 µM | TGI (K-562 leukemia): 13.9 µM | GI50 (KM12 colon): 3.82 µM | TGI (KM12 colon): > 100 µM | GI50 (LOX IMVI melanoma): 3.67 µM | TGI (LOX IMVI melanoma): 15.1 µM | GI50 (M14 melanoma): 4.28 µM | TGI (M14 melanoma): 89.8 µM | GI50 (MALME-3M melanoma): 2.37 µM | TGI (MALME-3M melanoma): 8.4 µM | GI50 (MCF7 breast): 2.91 µM | TGI (MCF7 breast): 11 µM | GI50 (MDA-MB-435): 3.78 µM | TGI (MDA-MB-435): > 100 µM | GI50 (MDA-MB-468 breast): 2.41 µM | TGI (MDA-MB-468 breast): 7.79 µM | GI50 (MOLT-4 leukemia): 2.92 µM | TGI (MOLT-4 leukemia): 8.41 µM | GI50 (NCI-H226 lung): 3.77 µM | TGI (NCI-H226 lung): 19.4 µM | GI50 (NCI-H23 lung): 2.76 µM | TGI (NCI-H23 lung): 8.15 µM | GI50 (NCI-H460 lung): 3.55 µM | TGI (NCI-H460 lung): 16.4 µM | GI50 (NCI-H522 lung): 2.73 µM | TGI (NCI-H522 lung): 9.1 µM | GI50 (NCI/ADR-RES ovarian): 3.12 µM | TGI (NCI/ADR-RES ovarian): 11.8 µM | GI50 (OVCAR-3 ovarian): 3.11 µM | TGI (OVCAR-3 ovarian): 10.7 µM | GI50 (OVCAR-4 ovarian): 3.94 µM | TGI (OVCAR-4 ovarian): > 100 µM | GI50 (OVCAR-5 ovarian): 9.78 µM | TGI (OVCAR-5 ovarian): 86.6 µM | GI50 (OVCAR-8 ovarian): 4.58 µM | TGI (OVCAR-8 ovarian): 20.6 µM | GI50 (PC-3 prostate): 3.43 µM | TGI (PC-3 prostate): 84.2 µM | GI50 (RPMI-8226 leukemia): 2.08 µM | TGI (RPMI-8226 leukemia): 5.74 µM | GI50 (RXF 393 renal): 4.18 µM | TGI (RXF 393 renal): 24.2 µM | GI50 (SF-268 CNS): 3.78 µM | TGI (SF-268 CNS): > 100 µM | GI50 (SF-295 CNS): 3.34 µM | TGI (SF-295 CNS): 14.8 µM | GI50 (SF-539 CNS): 3.45 µM | TGI (SF-539 CNS): 12.9 µM | GI50 (SK-MEL-28 melanoma): 3.4 µM | TGI (SK-MEL-28 melanoma): 39 µM | GI50 (SK-MEL-5 melanoma): 1.86 µM | TGI (SK-MEL-5 melanoma): 3.86 µM | GI50 (SK-OV-3 ovarian): 2.67 µM | TGI (SK-OV-3 ovarian): 9.38 µM | GI50 (SN12C renal): 3.1 µM | TGI (SN12C renal): 12.2 µM | GI50 (SNB-19 CNS): 3.32 µM | TGI (SNB-19 CNS): 19 µM | GI50 (SR leukemia): 2.06 µM | TGI (SR leukemia): 5.03 µM | GI50 (SW-620 colon): 4.35 µM | TGI (SW-620 colon): 31.7 µM | GI50 (T-47D breast): 2.57 µM | TGI (T-47D breast): 8.98 µM | GI50 (TK-10 renal): 3.43 µM | TGI (TK-10 renal): 24.3 µM | GI50 (U251 CNS): 3.3 µM | TGI (U251 CNS): 12.7 µM | GI50 (UACC-257 melanoma): 3.17 µM | TGI (UACC-257 melanoma): 16 µM | GI50 (UACC-62 melanoma): 3.31 µM | TGI (UACC-62 melanoma): 37.1 µM
